The values that follow come from patent US11447454B2, “Synthesis of benzodiazepine derivatives” (Trio Medicines Limited, priority 2015, dated 2022).

Data set [1] concerns AGSGR cells. Description: Sulphorhodamine-B (SRB) proliferation assay. Type of data set: cell-based, human. The settings on record: G17 10 nM. As for the experimental part:
The potency of (TR2) and (TR3) was tested in a sulphorhodamine-B (SRB) proliferation assay in a human gastric adenocarcinoma cell line stably transfected with the human gastrin/CCK2 receptor gene (AGSGR). SRB is a fluorescent dye that binds to proteins, so cells with a high rate of protein synthesis (proliferative cells) will show high levels of fluorescence in the SRB assay. The gastrin fragment G17 has an anti-proliferative effect on AGSGR cells. So, when treated with G17, the cells show lower levels of fluorescence in the SRB assay. (TR2) and (TR3) were compared with the positive controls YF476 and YM022. […] None of the compounds tested affected AGSGR cell proliferation in the absence of G17.
For orientation: Sulforhodamine B stains cellular protein and so reports cell mass.

The target in data set [2] is T1, CCK1 (human) (Homo sapiens, UniProt P32238).
T1 construct: expressed in transfected cells; host or cells: CHO cells
T1 sequence (P32238 1-428): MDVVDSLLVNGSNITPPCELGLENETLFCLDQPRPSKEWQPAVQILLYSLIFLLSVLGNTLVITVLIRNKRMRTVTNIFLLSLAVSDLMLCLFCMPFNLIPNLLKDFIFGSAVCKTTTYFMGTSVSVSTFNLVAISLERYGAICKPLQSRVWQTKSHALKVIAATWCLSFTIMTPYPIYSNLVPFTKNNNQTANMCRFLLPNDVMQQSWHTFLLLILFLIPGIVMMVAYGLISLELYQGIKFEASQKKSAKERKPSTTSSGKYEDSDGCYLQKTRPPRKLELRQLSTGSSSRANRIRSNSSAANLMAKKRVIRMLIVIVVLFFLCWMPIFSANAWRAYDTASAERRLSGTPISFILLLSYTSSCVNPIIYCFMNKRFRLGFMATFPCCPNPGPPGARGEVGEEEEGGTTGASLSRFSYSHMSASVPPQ
Briefly: CCK1 receptor functional assay (antagonist effect, cAMP, HTRF). The format is cell-based. The source says: (§1) (TR2) and (TR3) were compared with YF476 and YM022 in CCK1 and CCK2 receptor functional assays with the following assay criteria.
The potency of the antagonists is expressed as IC50, the concentration of antagonist that causes a half-maximum inhibition of the control agonist response. The affinity of the antagonist for the receptor is expressed as KB, the concentration of antagonist, which would occupy 50% of the receptors at equilibrium.
(In general: TR-FRET usually uses a lanthanide donor and a delayed reading to cut background.)

For data set [3], the target named is T2, CCK2 (human) (Homo sapiens, UniProt P32239).
T2 construct: expressed in transfected cells; host or cells: CHO cells
T2 sequence (P32239 1-447): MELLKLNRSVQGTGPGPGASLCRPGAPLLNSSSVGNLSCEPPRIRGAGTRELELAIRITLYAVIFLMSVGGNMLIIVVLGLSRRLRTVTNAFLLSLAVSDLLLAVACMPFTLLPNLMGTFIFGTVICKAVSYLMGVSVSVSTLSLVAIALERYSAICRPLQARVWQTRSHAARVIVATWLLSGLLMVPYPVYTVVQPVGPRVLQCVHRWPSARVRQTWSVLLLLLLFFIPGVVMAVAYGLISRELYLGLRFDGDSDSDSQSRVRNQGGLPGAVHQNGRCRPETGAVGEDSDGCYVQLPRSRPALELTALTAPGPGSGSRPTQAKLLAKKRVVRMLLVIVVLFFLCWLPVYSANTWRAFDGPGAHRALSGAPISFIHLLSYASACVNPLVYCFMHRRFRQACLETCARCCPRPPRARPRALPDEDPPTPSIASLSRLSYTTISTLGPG
Description: CCK2 receptor functional assay (antagonist effect, cAMP, HTRF). The format is cell-based.
Description: as §1
Furthermore, the selectivity of (TR2) for the CCK2 receptor over the CCK1 receptor was 30% higher than the selectivity of YF476. The potency of the antagonists is expressed as IC50, the concentration of antagonist that causes a half-maximum inhibition of the control agonist response. The affinity of the antagonist for the receptor is expressed as KB, the concentration of antagonist, which would occupy 50% of the receptors at equilibrium.

The test system of data set [4] is panel of 80 receptors. Description: Receptor binding screen, radiolabelled ligands. The settings on record: scintillation counting; other than CCK2 and CCK1. As for the experimental part: The potential of (TR2) and (TR3) to bind to other cellular and nuclear receptors was tested in a panel of 80 receptors. The assay used radiolabelled receptor ligands (agonist or antagonist, depending on the receptor), and the ability of the test compounds to inhibit ligand binding was measured by scintillation counting.

Data set [5] is described as follows: Morphology studies (crystallisation attempts, XRPD). Type of data set: physicochemical. The source says: This is indicative of an advantage over YF476 in terms of the formulation of a suitable pharmaceutical composition. YF476 is crystalline, which contributes to poor solubility and bioavailability. Amorphous YF476 can be used to increase bioavailability, but requires stabilization, which can be achieved as a solid dispersion on hydroxypropyl methyl cellulose by spray-drying.

In data set [6] the test system is increase in H+ concentration of gastric aspirate induced by pentagastrin. Briefly: Pharmacodynamic effect in healthy subjects (pentagastrin infusion). Type of data set: in vivo, human. As for the experimental part: Pentagastrin induces gastric acid secretion, and thereby increases H^+ concentration.
In further clinical studies, in healthy volunteers, single oral doses of 5, 15, 50 and 100 mg of (TR2) or 5, 15, 25 and 50 mg (TR2-A) were administered in conjunction with pentagastrin infusion (i.v. dose 0.6 μg/kg/h for 2 h).
YF476 with pentagastrin infusion.

Data set [7] can be described thus: Solubility study in Britton-Robinson's buffer (HPLC-UV). The format is physicochemical. As for the experimental part:
The test compound (2.5 mg of solid; n=1) was weighed in a clear glass vial and Britton-Robinson's buffer (0.5 mL) was added (pH 2.01, pH 3.06, pH 4.06, pH 5.08, pH 5.99, pH 6.98, and pH 8.16). The solution was agitated at ambient temperature overnight using a vial roller system, and then filtered (0.45 µm pore size; without pre-saturation). Two aliquots (50 μL) were sampled from the filtrate and diluted with one volume of 0.1 N hydrochloric acid and methanol (1:1 v/v) before analysis by HPLC-UV. A standard was prepared in DMSO at 10 mg/mL (n=1) which was then diluted 10-fold in 0.1 N hydrochloric acid and methanol (1:1 v/v) to give a 1 mg/mL solution. The concentration of test compound in the filtrate was quantified relative to the concentration standard.
Analysis was done using a gradient HPLC-UV system with a total cycle time of 6 min. The UV detection between 220 nm and 300 nm was done using a photodiode array detector. Total response was monitored.
The values given in the table above are for crystalline YF476 and (TR2-A) and amorphous (TR1).

Data set [8] is described as follows: Pharmacokinetics in healthy subjects. To be noted: human, in vivo, po. As for the experimental part:
In an initial study, healthy volunteers took a single oral dose of 100 mg (TR2) as an active pharmaceutical ingredient (API) in a capsule. Plasma concentrations were measured.
In further clinical studies, healthy volunteers (n=8) took single oral doses of 5, 15, 50 and 100 mg (TR2) as an active pharmaceutical ingredient (API) in a capsule. Plasma concentrations were measured.
Healthy volunteers (n=8) took single oral doses of 5, 15, 25 and 50 mg (TR2-A) as API in a capsule (TR2-A (crystalline) in hard gelatin capsules with no excipient, no processing of the API). Plasma concentrations of (TR2) and (TR2-A) were measured. The area under the curve of plasma concentrations of (TR2) after a single oral dose of 50 mg of (TR2-A) API (AUC0-24 h=212.5) was about the same as that observed for a similar formulation of a single oral dose of (TR2) 100 mg (AUC0-24 h=241.5). […] Moreover, the plasma concentrations of (TR2-A) were low (AUC0-24 h<10), showing that (TR2-A) is acting as a prodrug for (TR2).

Consider `CNc1cccc(NC(=O)N[C@@H]2N=C(c3ccccn3)c3ccccc3N(CC(=O)C(C)(C)C)C2=O)c1` [YF476, reference compound], for which, in data set [1] (compound 100 nM), the “inhibition of the anti-proliferative effects of G17” value (from here on “inhibition … of G17”) is recorded as “completely inhibited”.
For `CNc1cccc(NC(=O)N[C@H]2N=C(c3ccccn3)c3ccccc3N(CC(=O)C(C)(C)CO)C2=O)c1` [TR3], the “CCK1 receptor antagonism (in words)” value in data set [2] is given as “less potent CCK1 receptor antagonists”. In addition, in data set [3], the “CCK2 receptor antagonism (in words)” value is “potent CCK2 receptor antagonists”. The “inhibition of ligand binding in panel of 80 receptors” value in data set [4] is “No significant receptor binding”. Besides, the “inhibition … of G17” value in data set [1] (compound 500 nM) is recorded as “had the same effect”. Moreover, the preferred solid state entry in data set [5] is given as “prefer an amorphous state over a crystalline state”.
For the compound `CNc1cccc(NC(=O)N[C@@H]2N=C(c3ccccn3)c3ccccc3N(CC(=O)C(C)(C)COC(C)=O)C2=O)c1` [TR2-A, (R)-1-[1-(4-Acetoxy-3,3-dimethyl-2-oxo-butyl)-2-oxo-5-pyridin-2-yl-2,3-dihydro-1H-benzo[e][1,4]diazepin-3-yl]-3-(3-methylamino-phenyl)-urea], in data set [6], the “potency as a CCK2 receptor antagonist in healthy subjects (in words)” value is “greater than that of both (TR2) and YF476”.
Regarding `Cc1cccc(NC(=O)N[C@@H]2N=C(c3ccccc3)c3ccccc3N(CC(=O)c3ccccc3C)C2=O)c1` [YM022, reference compound], the “inhibition … of G17” value in data set [1] (compound 100 nM) is on record as “completely inhibited”.
For `CNc1cccc(NC(=O)NC2N=C(c3ccccn3)c3ccccc3N(CC(=O)C(C)(C)CO)C2=O)c1` (racemic) [TR1], the “aqueous solubility compared (in words)” value in data set [7] is “more soluble in aqueous solution than YF476”. Also, the preferred solid state result in data set [5] is recorded as “prefer an amorphous state over a crystalline state”.
Consider `CNc1cccc(NC(=O)N[C@@H]2N=C(c3ccccn3)c3ccccc3N(CC(=O)C(C)(C)CO)C2=O)c1` [TR2, (R)-1-[1-(4-Hydroxy-3,3-dimethyl-2-oxo-butyl)-2-oxo-5-pyridin-2-yl-2,3-dihydro-1H-benzo[e][1,4]diazepin-3-yl]-3-(3-methylamino-phenyl)-urea], for which, in data set [2], the “CCK1 receptor antagonism (in words)” value was “less potent CCK1 receptor antagonists”. In addition, in data set [3], the “CCK2 receptor antagonism (in words)” value is recorded as “potent CCK2 receptor antagonists” and the “selectivity for the CCK2 receptor over the CCK1 receptor higher than the selectivity of YF476” value is 30%. Further, the “less potent than YF476 and YM022 in the CCK2 assay” value in data set [3] (IC50 compared) was “about 5 fold”. Further, in data set [3] (KB compared), the “affinity for the CCK2 receptor lower than that of YF476” value was “about 5 fold” and the “affinity for the CCK2 receptor relative to YM022” value is reported as “twice”. Also, in data set [4], the “inhibition of ligand binding in panel of 80 receptors” value is listed as “No significant receptor binding”. For the same compound, the “inhibition … of G17” value in data set [1] (compound 100 nM) is listed as “completely inhibited”. For the same compound, the “AUC relative to YF476 100 mg” value in data set [8] is “about twice”. Also, in data set [5], the preferred solid state result was “prefer an amorphous state over a crystalline state” and the “solid state by XRPD analysis” value is listed as “amorphous state”.
